Data taken from ChEMBL document CHEMBL5505967, “Design and synthesis of 4-amino-2',4'-dihydroxyindanone derivatives as potent inhibitors of tyrosinase and melanin biosynthesis in human melanoma cells” (Eur J Med Chem, 2024).

Assays:
[1] = system: MNT-1; assay: cells; conditions: Homo sapiens, MNT-1, 336 h
Description: Inhibition of melanogenesis in human MNT-1 cells incubated for 14 days

[2] = system: MNT-1; assay: cells; conditions: Homo sapiens, MNT-1, 96 h
Description: Inhibition of melanogenesis in human MNT-1 cells incubated for 4 days

[3] = system: MNT-1; assay: cells; conditions: Homo sapiens, MNT-1, 96 h; remark: listed apart in the source
Description: Cytotoxicity against human MNT-1 cells incubated for 4 days by resazurin assay

[4] = system: MNT-1; assay: cells; conditions: Homo sapiens, MNT-1, 336 h; remark: listed apart in the source
Description: Cytotoxicity against human MNT-1 cells incubated for 14 days by resazurin assay

[5] = target: T1, Tyrosinase (Homo sapiens, UniProt P14679)
T1 sequence (P14679 whole entry): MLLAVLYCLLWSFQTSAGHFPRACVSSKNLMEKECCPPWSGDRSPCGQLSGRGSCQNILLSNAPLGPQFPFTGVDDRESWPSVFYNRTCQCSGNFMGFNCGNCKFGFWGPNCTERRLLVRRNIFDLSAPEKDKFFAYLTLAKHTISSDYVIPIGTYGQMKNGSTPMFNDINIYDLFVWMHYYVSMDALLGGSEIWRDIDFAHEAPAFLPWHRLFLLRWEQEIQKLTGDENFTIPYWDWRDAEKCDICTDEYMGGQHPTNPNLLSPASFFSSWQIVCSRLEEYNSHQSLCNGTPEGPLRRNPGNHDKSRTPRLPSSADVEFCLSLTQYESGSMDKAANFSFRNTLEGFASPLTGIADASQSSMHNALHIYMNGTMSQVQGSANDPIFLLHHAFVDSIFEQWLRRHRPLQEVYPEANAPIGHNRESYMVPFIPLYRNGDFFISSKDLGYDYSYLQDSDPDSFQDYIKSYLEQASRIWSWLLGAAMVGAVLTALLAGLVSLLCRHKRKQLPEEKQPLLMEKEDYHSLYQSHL
Description: Inhibition of tyrosinase in human MNT-1 cells using L-DOPA as substrate preincubated for 10 mins followed by substrate addition measured after 180 mins by absorbance based spectramax microplate reader assay

[6] = target: Mushroom tyrosinase (Agaricus bisporus, UniProt O42713+Q00024+C7FF04+C7FF05); assay: Inhibition of mushroom tyrosinase using L-DOPA as substrate preincubated for 10 mins followed by substrate addition measured after 10 mins by absorbance based spectramax microplate reader assay; assay type: protein assay
[7] = target: T1, Tyrosinase; assay: Inhibition of His-tagged human tyrosinase expressed in HEK293 cells using L-DOPA as substrate by microplate reader analysis

Row | SMILES | IC50 [1] [µM] | IC50 [2] [µM] | IC50 [5] [µM] | IC50 [6] [µM] | IC50 [7] [µM] | CC50 [3] [µM] | CC50 [4] [µM]
1 | O=C1/C(=C/c2ccc(O)cc2O)Cc2c(O)cccc21 | – | – | – | 0.09 | – | – | –
2 | O=C1/C(=C/c2ccc(O)cc2O)Cc2c1cccc2[N+](=O)[O-] | – | – | > 100 | 0.16 | – | – | –
3 | C[C@H](N)C(=O)Nc1cccc2c1C/C(=C\c1ccc(O)cc1O)C2=O | 4.6 | 19 | – | 0.6 | – | > 100 | 94
4 | CNc1cccc2c1C/C(=C\c1ccc(O)cc1O)C2=O | 0.77 | 3.2 | – | 0.014 | – | 78 | 29
5 | O=C1/C(=C/c2ccc(O)cc2O)Cc2c(F)cccc21 | – | – | – | 0.15 | – | – | –
6 | CCC(=O)Nc1cccc2c1C/C(=C\c1ccc(O)cc1O)C2=O | 3.1 | 8 | – | 0.014 | – | > 100 | 65
7 | O=C1/C(=C/c2ccc(O)cc2O)Cc2c1cccc2C(F)(F)F | – | – | > 100 | 0.18 | – | – | –
8 | CC(=O)Nc1cccc2c1C/C(=C\c1ccc(O)cc1O)C2=O | 3.3 | 19 | – | 0.009 | – | > 100 | 67
9 | Oc1cccc(O)c1 [RESORCINOL] | – | – | – | – | > 3000 | – | –

Now from value to compound, other results behind:

Row | IC50 [1] [µM] | IC50 [2] [µM] | IC50 [5] [µM] | IC50 [6] [µM] | IC50 [7] [µM] | SMILES | CC50 [3] [µM] | CC50 [4] [µM]
10 | 0.28 | 10 | 0.17 | – | – | CC(C)C(=O)Nc1nc(-c2ccc(O)cc2O)cs1 | > 100 | 36
11 | – | – | – | 0.46 | – | CC(C)[C@@H](N)C(=O)Nc1cccc2c1C/C(=C\c1ccc(O)cc1O)C2=O | – | –
12 | – | – | – | 0.086 | – | O=C1/C(=C/c2ccc(O)cc2O)Cc2c(Br)cccc21 | – | –
13 | 2 | 24 | – | 0.006 | – | CCCC(=O)Nc1cccc2c1C/C(=C\c1ccc(O)cc1O)C2=O | > 100 | 77
14 | – | – | – | 0.1 | – | O=C(Nc1cccc2c1C/C(=C\c1ccc(O)cc1O)C2=O)c1ccccc1 | – | –
15 | 0.53 | 3.8 | – | 0.027 | – | Nc1cccc2c1C/C(=C\c1ccc(O)cc1O)C2=O | > 100 | 66
16 | – | – | – | 0.26 | – | N#Cc1cccc2c1C/C(=C\c1ccc(O)cc1O)C2=O | – | –
17 | – | – | – | 0.16 | – | COc1cccc2c1C/C(=C\c1ccc(O)cc1O)C2=O | – | –
18 | 4.1 | 21 | – | 0.019 | – | Cc1cccc2c1C/C(=C\c1ccc(O)cc1O)C2=O | > 100 | 61
19 | 12 | 29 | – | 0.39 | – | NCC(=O)Nc1cccc2c1C/C(=C\c1ccc(O)cc1O)C2=O | > 100 | > 100
20 | 2.1 | 7 | – | 0.06 | – | CC(C)C(=O)Nc1cccc2c1C/C(=C\c1ccc(O)cc1O)C2=O | > 100 | 62
21 | – | – | – | 0.083 | – | CN(C)c1cccc2c1C/C(=C\c1ccc(O)cc1O)C2=O | – | –
